In PubChem BioAssay (NCI):
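Exposure lasted 48 hours, with cells grown in 96-well plates and compounds tested at five concentrations. GI50 is the concentration that inhibits growth by half. TGI denotes the concentration required for complete inhibition of growth.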

Legend:
Assay in all cases: NCI tumour cell line growth inhibition, 48 h
NCI-H522 lung = tested on: NCI-H522 lung
HOP-62 NSCLC = tested on: HOP-62 NSCLC
SF-295 CNS = tested on: SF-295 CNS
TK-10 renal = tested on: TK-10 renal
RXF 393 renal = tested on: RXF 393 renal
K-562 leukemia = tested on: K-562 leukemia
HT29 colon = tested on: HT29 colon
OVCAR-3 ovarian = tested on: OVCAR-3 ovarian
IGROV1 ovarian = tested on: IGROV1 ovarian
786-0 renal = tested on: 786-0 renal
BT-549 breast = tested on: BT-549 breast
SW-620 colon = tested on: SW-620 colon
RPMI-8226 leukemia = tested on: RPMI-8226 leukemia
CAKI-1 renal = tested on: CAKI-1 renal
T-47D breast = tested on: T-47D breast
HS 578T breast = tested on: HS 578T breast
A498 renal = tested on: A498 renal
M14 melanoma = tested on: M14 melanoma
UACC-62 melanoma = tested on: UACC-62 melanoma
NCI-H460 lung = tested on: NCI-H460 lung
MALME-3M melanoma = tested on: MALME-3M melanoma
COLO 205 colon = tested on: COLO 205 colon
LOX IMVI melanoma = tested on: LOX IMVI melanoma
HCT-116 colon = tested on: HCT-116 colon
NCI/ADR-RES ovarian = tested on: NCI/ADR-RES ovarian
MCF7 breast = tested on: MCF7 breast
SNB-19 CNS = tested on: SNB-19 CNS
HCT-15 colon = tested on: HCT-15 colon
CCRF-CEM leukemia = tested on: CCRF-CEM leukemia
SR leukemia = tested on: SR leukemia
PC-3 prostate = tested on: PC-3 prostate
NCI-H23 lung = tested on: NCI-H23 lung
MDA-MB-468 breast = tested on: MDA-MB-468 breast
ACHN renal = tested on: ACHN renal
DU-145 prostate = tested on: DU-145 prostate
HOP-92 NSCLC = tested on: HOP-92 NSCLC
SNB-75 CNS = tested on: SNB-75 CNS
KM12 colon = tested on: KM12 colon
MDA-MB-435 = tested on: MDA-MB-435
SK-MEL-28 melanoma = tested on: SK-MEL-28 melanoma
MOLT-4 leukemia = tested on: MOLT-4 leukemia
SF-268 CNS = tested on: SF-268 CNS
SK-MEL-5 melanoma = tested on: SK-MEL-5 melanoma
SF-539 CNS = tested on: SF-539 CNS
NCI-H226 lung = tested on: NCI-H226 lung
UO-31 renal = tested on: UO-31 renal
SK-OV-3 ovarian = tested on: SK-OV-3 ovarian
OVCAR-5 ovarian = tested on: OVCAR-5 ovarian
U251 CNS = tested on: U251 CNS
HCC-2998 colon = tested on: HCC-2998 colon
SK-MEL-2 melanoma = tested on: SK-MEL-2 melanoma
HL-60(TB) leukemia = tested on: HL-60(TB) leukemia

**Q.** For `COc1ccc2cc([C@H](C)C(=O)[Se]CCC#N)ccc2c1`, which GI50 (NCI-H522 lung) is on record?
**A.** 1.48 µM

**Q.** What about the TGI (NCI-H522 lung) of the same compound?
**A.** 2.92 µM

**Q.** And the GI50 (HOP-62 NSCLC)?
**A.** 2.16 µM

**Q.** What about the TGI (HOP-62 NSCLC) of the same compound?
**A.** 3.94 µM

**Q.** And the GI50 (SF-295 CNS)?
**A.** 1.81 µM

**Q.** And the TGI (SF-295 CNS)?
**A.** 3.55 µM

**Q.** And the GI50 (TK-10 renal)?
**A.** 1.63 µM

**Q.** And the TGI (TK-10 renal)?
**A.** 3.09 µM

**Q.** And the GI50 (RXF 393 renal)?
**A.** 1.67 µM

**Q.** And the TGI (RXF 393 renal)?
**A.** 3.22 µM

**Q.** What about the GI50 (K-562 leukemia) of the same compound?
**A.** 3.78 µM

**Q.** And the TGI (K-562 leukemia)?
**A.** 23.6 µM

**Q.** And the GI50 (HT29 colon)?
**A.** 2.02 µM

**Q.** And the TGI (HT29 colon)?
**A.** 4.82 µM

**Q.** And the GI50 (OVCAR-3 ovarian)?
**A.** 2.39 µM

**Q.** And the TGI (OVCAR-3 ovarian)?
**A.** 5.78 µM

**Q.** And the GI50 (IGROV1 ovarian)?
**A.** 2.23 µM

**Q.** And the TGI (IGROV1 ovarian)?
**A.** 4.98 µM

**Q.** And the GI50 (786-0 renal)?
**A.** 2.12 µM

**Q.** What about the TGI (786-0 renal) of the same compound?
**A.** 3.72 µM

**Q.** What about the GI50 (BT-549 breast) of the same compound?
**A.** 1.61 µM

**Q.** What about the TGI (BT-549 breast) of the same compound?
**A.** 3.12 µM

**Q.** And the GI50 (SW-620 colon)?
**A.** 2.91 µM

**Q.** What about the TGI (SW-620 colon) of the same compound?
**A.** 7.97 µM

**Q.** And the GI50 (RPMI-8226 leukemia)?
**A.** 2.86 µM

**Q.** And the TGI (RPMI-8226 leukemia)?
**A.** 9.32 µM

**Q.** What about the GI50 (CAKI-1 renal) of the same compound?
**A.** 1.88 µM

**Q.** And the TGI (CAKI-1 renal)?
**A.** 3.32 µM

**Q.** What about the GI50 (T-47D breast) of the same compound?
**A.** 5.43 µM

**Q.** What about the TGI (T-47D breast) of the same compound?
**A.** 28.2 µM

**Q.** And the GI50 (HS 578T breast)?
**A.** 2.07 µM

**Q.** And the TGI (HS 578T breast)?
**A.** 7.29 µM

**Q.** What about the GI50 (A498 renal) of the same compound?
**A.** 1.78 µM

**Q.** What about the TGI (A498 renal) of the same compound?
**A.** 3.27 µM

**Q.** And the GI50 (M14 melanoma)?
**A.** 1.48 µM

**Q.** And the TGI (M14 melanoma)?
**A.** 3.44 µM

**Q.** What about the GI50 (UACC-62 melanoma) of the same compound?
**A.** 2.52 µM

**Q.** And the TGI (UACC-62 melanoma)?
**A.** 7.52 µM

**Q.** What about the GI50 (NCI-H460 lung) of the same compound?
**A.** 2.72 µM

**Q.** What about the TGI (NCI-H460 lung) of the same compound?
**A.** 12.1 µM

**Q.** What about the GI50 (MALME-3M melanoma) of the same compound?
**A.** 1.64 µM

**Q.** What about the TGI (MALME-3M melanoma) of the same compound?
**A.** 3.39 µM

**Q.** And the GI50 (COLO 205 colon)?
**A.** 5.81 µM

**Q.** And the TGI (COLO 205 colon)?
**A.** 23.1 µM

**Q.** What about the GI50 (LOX IMVI melanoma) of the same compound?
**A.** 1.89 µM

**Q.** What about the TGI (LOX IMVI melanoma) of the same compound?
**A.** 4.97 µM

**Q.** And the GI50 (HCT-116 colon)?
**A.** 1.79 µM

**Q.** And the TGI (HCT-116 colon)?
**A.** 3.37 µM

**Q.** What about the GI50 (NCI/ADR-RES ovarian) of the same compound?
**A.** 2 µM

**Q.** What about the TGI (NCI/ADR-RES ovarian) of the same compound?
**A.** 5.21 µM

**Q.** And the GI50 (MCF7 breast)?
**A.** 2.22 µM

**Q.** What about the TGI (MCF7 breast) of the same compound?
**A.** 10 µM

**Q.** And the GI50 (SNB-19 CNS)?
**A.** 1.79 µM

**Q.** What about the TGI (SNB-19 CNS) of the same compound?
**A.** 3.47 µM

**Q.** What about the GI50 (HCT-15 colon) of the same compound?
**A.** 2 µM

**Q.** What about the TGI (HCT-15 colon) of the same compound?
**A.** 4.53 µM

**Q.** And the GI50 (CCRF-CEM leukemia)?
**A.** 3.06 µM

**Q.** And the TGI (CCRF-CEM leukemia)?
**A.** 56.8 µM

**Q.** And the GI50 (SR leukemia)?
**A.** 2.13 µM

**Q.** What about the TGI (SR leukemia) of the same compound?
**A.** 12.2 µM

**Q.** And the GI50 (PC-3 prostate)?
**A.** 2.7 µM

**Q.** And the TGI (PC-3 prostate)?
**A.** 8.53 µM

**Q.** What about the GI50 (NCI-H23 lung) of the same compound?
**A.** 2.71 µM

**Q.** And the TGI (NCI-H23 lung)?
**A.** 7.95 µM

**Q.** And the GI50 (MDA-MB-468 breast)?
**A.** 1.96 µM

**Q.** And the TGI (MDA-MB-468 breast)?
**A.** 4.41 µM

**Q.** And the GI50 (ACHN renal)?
**A.** 2.42 µM

**Q.** What about the TGI (ACHN renal) of the same compound?
**A.** 5.42 µM

**Q.** And the GI50 (DU-145 prostate)?
**A.** 2.66 µM

**Q.** What about the TGI (DU-145 prostate) of the same compound?
**A.** 8.51 µM

**Q.** What about the GI50 (HOP-92 NSCLC) of the same compound?
**A.** 1.76 µM

**Q.** And the TGI (HOP-92 NSCLC)?
**A.** 3.48 µM

**Q.** And the GI50 (SNB-75 CNS)?
**A.** 1.78 µM

**Q.** What about the TGI (SNB-75 CNS) of the same compound?
**A.** 3.59 µM

**Q.** What about the GI50 (KM12 colon) of the same compound?
**A.** 5.63 µM

**Q.** What about the TGI (KM12 colon) of the same compound?
**A.** 50.9 µM

**Q.** And the GI50 (MDA-MB-435)?
**A.** 1.79 µM

**Q.** What about the TGI (MDA-MB-435) of the same compound?
**A.** 3.73 µM

**Q.** What about the GI50 (SK-MEL-28 melanoma) of the same compound?
**A.** 2.02 µM

**Q.** What about the TGI (SK-MEL-28 melanoma) of the same compound?
**A.** 4.8 µM

**Q.** What about the GI50 (MOLT-4 leukemia) of the same compound?
**A.** 2.62 µM

**Q.** And the TGI (MOLT-4 leukemia)?
**A.** 13 µM

**Q.** What about the GI50 (SF-268 CNS) of the same compound?
**A.** 2.44 µM

**Q.** What about the TGI (SF-268 CNS) of the same compound?
**A.** 5.11 µM

**Q.** What about the GI50 (SK-MEL-5 melanoma) of the same compound?
**A.** 2.02 µM

**Q.** What about the TGI (SK-MEL-5 melanoma) of the same compound?
**A.** 4.07 µM

**Q.** And the GI50 (SF-539 CNS)?
**A.** 1.95 µM

**Q.** And the TGI (SF-539 CNS)?
**A.** 3.75 µM

**Q.** And the GI50 (NCI-H226 lung)?
**A.** 1.56 µM

**Q.** What about the TGI (NCI-H226 lung) of the same compound?
**A.** 3.63 µM

**Q.** What about the GI50 (UO-31 renal) of the same compound?
**A.** 1.44 µM

**Q.** And the TGI (UO-31 renal)?
**A.** 2.78 µM

**Q.** What about the GI50 (SK-OV-3 ovarian) of the same compound?
**A.** 4.49 µM

**Q.** And the TGI (SK-OV-3 ovarian)?
**A.** 7.42 µM

**Q.** What about the GI50 (OVCAR-5 ovarian) of the same compound?
**A.** 2.52 µM

**Q.** And the TGI (OVCAR-5 ovarian)?
**A.** 6.29 µM

**Q.** And the GI50 (U251 CNS)?
**A.** 1.7 µM

**Q.** And the TGI (U251 CNS)?
**A.** 3.26 µM

**Q.** What about the GI50 (HCC-2998 colon) of the same compound?
**A.** 7.06 µM

**Q.** And the TGI (HCC-2998 colon)?
**A.** 22.6 µM

**Q.** And the GI50 (SK-MEL-2 melanoma)?
**A.** 1.9 µM

**Q.** And the TGI (SK-MEL-2 melanoma)?
**A.** 4.39 µM

**Q.** What about the GI50 (HL-60(TB) leukemia) of the same compound?
**A.** 1.38 µM

**Q.** And the TGI (HL-60(TB) leukemia)?
**A.** 4.24 µM
